Reference: patent US6534499B2, “N-substituted-N′-substituted urea derivatives and the use thereof as TNF-α production inhibitory agents” (Santen Pharmaceutical Co., Ltd., priority 1999, dated 2003)

What was measured:
[1] = test system: TNF-α production induced by LPS (plasma TNF-α); assay: In vivo test: plasma TNF-α level in LPS-administered mice; settings: female mice; 10 mg/kg subcutaneously immediately after LPS i.p.; plasma one hour after LPS; mouse TNF-α ELISA
Description: (§1) Each candidate compound was inspected for the effect of inhibiting TNF-α production induced by the stimulation with lipopolysaccharide (LPS), by an in vitro or in vivo test according to the method proposed by McGeehan et al. (Nature, 1994, 370:558-561).
Animals used herein were about 7-week-old female mice (5 animals per group) having a body weight of about 20 g. The LPS herein used was derived from Salmonella and it was dissolved in phosphate-buffered physiological saline prior to the practical use (20 μg/ml). Each candidate compound was dissolved or suspended in a 2% dimethyl sulfoxide-containing physiological saline to give a uniform solution or suspension (1 mg/ml).
The LPS solution (10 ml/kg) prepared above was intraperitoneally administered to each test mouse. Immediately after the administration of the LPS solution, the solution of each candidate compound prepared above (10 ml/kg, containing 10 mg/kg of the candidate compound) was subcutaneously injected to each animal. After one hour from the administration of the LPS, each animal was decapitated, the blood was collected from the animal and the blood was centrifuged at 4° C., 3000 rpm for 5 minutes. The resulting plasma was inspected for the level of TNF-α using the mouse TNF-α -specific ELISA kit. In this connection, any TNF-α was not detected in the plasma derived from the animal group free of the LPS-administration (control group).
The rate of TNF-α production-inhibitory effect observed for each candidate compound was determined according to the following equation:
Inhibitory Rate (%)=100×(A−B)/A
Wherein A is the level of TNF-α detected in the plasma derived from the animal group to which any candidate compound was not administered and B is the level of TNF-α detected in the plasma derived from the animal group to which a candidate compound was administered.

[2] = test system: TNF-α produced by the human monocyte strain THP-1; assay: In vitro test: TNF-α production by THP-1 cells induced by stimulation with LPS; format: cell-based; settings: 2 h; compound 10^−5M; THP-1 cells 10^6 cells/ml; LPS 2 μg/ml; 37° C., two hours; human TNF-α ELISA; read-out: Inhibitory Rate (%) of TNF-α production
Description: as §1
The test was carried out by, determining the amount of TNF-α produced by the human monocyte strain THP-1 induced by the stimulation with LPS.
The culture medium used in this test was RPMI 1640 culture medium supplemented wiTNFetal calf serum (10%), L-glutamine (2 mM), 2-mercaptoethanol (50 μM), penicillin (50 units/ml) and streptomycin (50 μg/ml).
Regarding the cells, the human monocyte strain THP-1 cells cultivated in the foregoing culture medium were centrifuged at 100 xg for 5 minutes to remove the supernatant and then again suspended in a fresh culture medium prior to the practical use. The LPS used herein was derived from S. Typhimurium and this was dissolved in purified water and then diluted with the culture medium prior to use. Each compound to be tested was dissolved in dimethyl sulfoxide (DMSO) and diluted with the culture medium prior to the practical use.
The cells (10^6 cells/ml) prepared according to the foregoing method were admixed with the LPS (2 μg/ml) and a compound to be tested (10^−5M), the cells were incubated at 37° C. for two hours and then centrifuged at 1000 xg for 5 minutes. The resulting supernatant of the culture medium was inspected for the level of TNF-α using the human TNF-α -specific ELISA kit. In this connection, it was confirmed that the supernatant obtained by cultivating the cells in the culture medium free of any LPS (control) never included any TNF-α.
The rate of the TNF-α production inhibitory effect observed for each candidate compound was determined according to the following equation: […]
Wherein A is the level of TNF-α detected in the supernatant obtained from the culture medium free of any candidate compound and B is the level of TNF-α detected in the supernatant obtained from the culture medium containing a candidate compound.

Row | melting point | Compound | Inhibitory Rate (%) of TNF-α production [1] [%] | inhibition at 10 µM [2] [%]
1 |  | CSCCN(CCC1CCCCC1)C(=O)NCCN1CCCCC1.Cl [Compound 6-4, 1-(2-Cyclohexylethyl)-1-[2-(methylthio)ethyl]-3-[2-(1-piperidyl)ethyl]urea hydrochloride] | 59 | 
2 |  | CC(=O)SCCN(CCC1CCCCC1)C(=O)NCCN1CCCCCC1 [Compound 3-9, 1-[2-(Acetylthio)ethyl]-1-(2-cyclohexylethyl)-3-[2-(l-homopiperidyl)ethyl]-urea] | 76 | 
3 |  | CC(=O)SCCN(CCc1ccccc1)C(=O)N[C@@H](Cc1ccccc1)CN1CCN(C)CC1 [Compound 3-6, 1-[2-(Acetylthio)ethyl]-3-[(1S)-1-benzyl-2-(4-methylpiperazin-1-yl)ethyl]-1-phenethyl urea] |  | 94
4 |  | CC(=O)SCCN(CCC1CCCCC1)C(=O)NCCN1CC=CCC1 [Compound 3-13, 1-[2-(Acetylthio)ethyl]-1-(2-cyclohexylethyl)-3-[2-(1,2,5,6-tetrahydropyridin-1-yl)ethyl] urea] |  | 66
5 |  | CC(=O)SCCN(CCC1CCCCC1)C(=O)NCCCN1CCCC1 [Compound 3-3, 1-[2-(Acetylthio)ethyl]-1-(2-cyclohexylethyl)-3-[3-(1-pyrrolidinyl)propyl]-urea] | 64 | 
6 |  | CC(=O)SCCN(CCC1CCCCC1)C(=O)NCCCN1CCCCC1 [Compound 3-4, 1-[2-(Acetylthio)ethyl]-1-(2-cyclohexylethyl)-3-[3-(1-piperidyl)propyl]urea] | 51 | 
7 |  | CCN1CCCC1CNC(=O)N(CCSC(C)=O)CCC1CCCCC1 (racemic) [Compound 3-17, 1-[2-(Acetylthio)ethyl]-1-(2-cyclohexylethyl)-3-[[(2RS)-1-ethyl-2-pyrrolidinyl]methyl] urea] | 52 | 
8 | 170 °C (dec.) | CC(=O)SCCN(CCC1CCCCC1)C(=O)NCCN1CCC(N(C)C)CC1.Cl.Cl [Compound 6-2, 1-[2-(Acetylthio)ethyl]-1-(2-cyclohexylethyl)-3-[2-[4-(dimethylamino)-1-piperidyl]ethyl]urea di-hydrochloride] |  | 58
9 |  | CC(=O)SCCN(CCC1CCCCC1)C(=O)NCCN1CCCC1 [Compound 3-2, 1-[2-(Acetylthio)ethyl]-1-(2-cyclohexylethyl)-3-[2-(1-pyrrolidinyl)ethyl]-urea] | 50 | 
10 |  | CC(=O)SCCN(CCC1CCCCC1)C(=O)NCCN1CCCCC1.Cl [Compound 6-1, 1-[2-(Acetylthio)ethyl]-1-(2-cyclohexylethyl)-3-[2-(1-piperidyl)-ethyl]urea hydrochloride] | 78 | 
11 |  | CC(=O)SCCN(CCC1CCCCC1)C(=O)NCC1CCN(C)CC1.Cl [Compound 6-3, 1-[2-(Acetylthio)ethyl]-1-(2-cyclohexylethyl)-3-[(1-methyl-4-piperidyl)-methyl]urea hydrochloride] | 50 | 
12 | 94.5 to 95.5 °C | O=C(NCC1CCN(C(=O)OCc2ccccc2)CC1)N(CCO)CCC1CCCCC1 [Compound 1-18, 1-[[1-(Benzyloxycarbonyl)-4-piperidyl]methyl]-3-(2-cyclohexylethyl)-3-(2-hydroxy-ethyl) urea] |  | 
